Key:
Format in all cases: cell-based
[1] = biological target: T1, human TLR8 (Homo sapiens, UniProt Q9NR97); assay: TLR8 inhibition reporter assay (HEK-Blue cells, SEAP reporter, R848 stimulation); settings: HEK-Blue cells overexpressing human TLR8, SEAP reporter, R848 15.9 μM
T1 construct: host or cells: HEK-Blue cells (HEK293-derived reporter line)
T1 sequence (Q9NR97 27-1041): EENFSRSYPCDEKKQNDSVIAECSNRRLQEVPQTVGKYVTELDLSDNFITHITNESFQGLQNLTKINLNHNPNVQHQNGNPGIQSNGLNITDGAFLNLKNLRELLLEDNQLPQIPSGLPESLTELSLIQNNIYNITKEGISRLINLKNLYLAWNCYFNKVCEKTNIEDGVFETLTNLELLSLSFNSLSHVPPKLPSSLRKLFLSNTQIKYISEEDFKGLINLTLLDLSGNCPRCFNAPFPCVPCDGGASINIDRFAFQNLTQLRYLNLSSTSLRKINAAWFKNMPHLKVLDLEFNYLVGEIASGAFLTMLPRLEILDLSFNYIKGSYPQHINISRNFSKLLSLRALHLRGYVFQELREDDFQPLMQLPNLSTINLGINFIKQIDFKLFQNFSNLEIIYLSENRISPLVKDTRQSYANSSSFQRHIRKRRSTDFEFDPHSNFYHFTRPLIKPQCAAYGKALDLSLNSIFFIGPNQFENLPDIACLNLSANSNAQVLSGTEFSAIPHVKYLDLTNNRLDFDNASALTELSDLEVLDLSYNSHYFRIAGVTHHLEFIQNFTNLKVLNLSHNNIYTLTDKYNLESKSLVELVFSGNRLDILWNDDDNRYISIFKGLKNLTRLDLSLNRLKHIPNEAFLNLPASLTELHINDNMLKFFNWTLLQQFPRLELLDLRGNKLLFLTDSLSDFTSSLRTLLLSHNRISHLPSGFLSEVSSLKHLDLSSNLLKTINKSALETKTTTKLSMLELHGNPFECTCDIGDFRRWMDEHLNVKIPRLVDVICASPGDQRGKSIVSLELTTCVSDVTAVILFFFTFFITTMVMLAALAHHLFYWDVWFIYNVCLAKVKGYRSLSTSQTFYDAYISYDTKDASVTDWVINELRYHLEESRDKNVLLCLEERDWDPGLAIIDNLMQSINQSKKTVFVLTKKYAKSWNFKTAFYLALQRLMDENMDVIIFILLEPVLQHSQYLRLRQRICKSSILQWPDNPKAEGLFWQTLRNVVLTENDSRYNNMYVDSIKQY
In short: (§1)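 Agonists (final): TLR7 gardiquimod 7.5 μM; TLR8 R848 15.9 μM; TLR9 ODN2006 5 nM. HEK-Blue reporter cells, 30 min RT compound pre-incubation, 0.05 nM–50 μM dose range, 22 h at 37 °C, colorimetric SEAP detection medium. % inhibition relative to agonist+DMSO and known-inhibitor wells.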

[2] = biological target: T2, human TLR7 (Homo sapiens, UniProt Q9NYK1); assay: TLR7 inhibition reporter assay (HEK-Blue cells, SEAP reporter, gardiquimod stimulation); settings: HEK-Blue cells overexpressing human TLR7, SEAP reporter, gardiquimod 7.5 μM
T2 construct: host or cells: HEK-Blue cells (HEK293-derived reporter line)
T2 sequence (Q9NYK1 27-1049): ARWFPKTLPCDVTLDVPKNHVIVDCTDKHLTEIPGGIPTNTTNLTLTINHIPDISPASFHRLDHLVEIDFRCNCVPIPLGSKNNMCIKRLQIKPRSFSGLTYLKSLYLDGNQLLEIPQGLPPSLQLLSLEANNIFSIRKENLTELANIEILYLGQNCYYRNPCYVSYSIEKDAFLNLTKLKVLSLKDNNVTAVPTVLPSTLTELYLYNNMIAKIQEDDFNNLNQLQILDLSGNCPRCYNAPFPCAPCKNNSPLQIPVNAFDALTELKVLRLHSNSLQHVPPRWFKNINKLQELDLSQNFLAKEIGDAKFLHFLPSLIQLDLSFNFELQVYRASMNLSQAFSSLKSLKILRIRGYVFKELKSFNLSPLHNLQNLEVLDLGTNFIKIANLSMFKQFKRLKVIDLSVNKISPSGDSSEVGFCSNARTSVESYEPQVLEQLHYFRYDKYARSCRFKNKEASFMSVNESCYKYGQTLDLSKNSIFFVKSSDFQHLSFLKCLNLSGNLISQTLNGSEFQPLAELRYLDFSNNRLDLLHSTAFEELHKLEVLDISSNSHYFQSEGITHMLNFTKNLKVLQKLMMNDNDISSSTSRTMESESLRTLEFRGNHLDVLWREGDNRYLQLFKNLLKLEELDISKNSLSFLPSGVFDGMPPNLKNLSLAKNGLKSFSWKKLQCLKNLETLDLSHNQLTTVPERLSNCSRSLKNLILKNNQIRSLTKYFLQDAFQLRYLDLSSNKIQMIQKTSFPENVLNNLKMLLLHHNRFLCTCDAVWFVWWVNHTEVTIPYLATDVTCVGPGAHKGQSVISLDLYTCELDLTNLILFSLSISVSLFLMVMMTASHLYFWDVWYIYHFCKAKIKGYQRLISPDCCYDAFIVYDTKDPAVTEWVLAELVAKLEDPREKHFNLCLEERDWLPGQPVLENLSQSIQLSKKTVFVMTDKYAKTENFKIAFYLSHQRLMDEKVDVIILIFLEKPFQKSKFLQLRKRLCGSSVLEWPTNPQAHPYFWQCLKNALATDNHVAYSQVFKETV
In short: as §1

[3] = biological target: T3, human TLR9 (Homo sapiens, UniProt Q9NR96); assay: TLR9 inhibition reporter assay (HEK-Blue cells, SEAP reporter, ODN2006 stimulation); settings: HEK-Blue cells overexpressing human TLR9, SEAP reporter, ODN2006 5 nM
T3 construct: host or cells: HEK-Blue cells (HEK293-derived reporter line)
T3 sequence (Q9NR96 26-1032): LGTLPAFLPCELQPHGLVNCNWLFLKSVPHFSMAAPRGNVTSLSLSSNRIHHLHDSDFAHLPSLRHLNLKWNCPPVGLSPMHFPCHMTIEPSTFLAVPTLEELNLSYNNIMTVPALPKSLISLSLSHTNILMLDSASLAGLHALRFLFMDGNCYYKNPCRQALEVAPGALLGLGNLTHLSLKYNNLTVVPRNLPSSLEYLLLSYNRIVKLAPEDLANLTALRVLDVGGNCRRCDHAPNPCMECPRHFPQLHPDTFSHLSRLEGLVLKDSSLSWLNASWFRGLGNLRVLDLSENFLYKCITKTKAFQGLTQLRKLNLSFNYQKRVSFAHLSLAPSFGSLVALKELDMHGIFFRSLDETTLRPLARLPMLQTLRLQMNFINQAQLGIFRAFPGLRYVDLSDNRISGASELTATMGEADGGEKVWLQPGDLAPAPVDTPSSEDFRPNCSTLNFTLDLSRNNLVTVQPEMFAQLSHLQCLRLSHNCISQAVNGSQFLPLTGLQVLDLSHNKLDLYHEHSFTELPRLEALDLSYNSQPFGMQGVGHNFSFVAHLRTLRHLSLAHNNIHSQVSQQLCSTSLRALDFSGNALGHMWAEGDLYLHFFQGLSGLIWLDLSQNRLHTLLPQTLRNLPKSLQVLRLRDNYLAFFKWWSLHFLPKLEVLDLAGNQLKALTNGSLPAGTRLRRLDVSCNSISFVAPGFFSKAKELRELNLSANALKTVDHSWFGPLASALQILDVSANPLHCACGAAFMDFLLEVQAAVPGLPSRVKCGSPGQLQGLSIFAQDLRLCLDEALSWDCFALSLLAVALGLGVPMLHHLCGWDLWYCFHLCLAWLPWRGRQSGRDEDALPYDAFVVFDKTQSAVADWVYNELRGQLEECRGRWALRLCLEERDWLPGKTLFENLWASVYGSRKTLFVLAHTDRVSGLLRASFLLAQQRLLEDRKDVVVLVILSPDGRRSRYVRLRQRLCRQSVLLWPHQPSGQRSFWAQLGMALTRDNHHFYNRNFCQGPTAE
In short: as §1

| IC50 [1] [µM] | IC50 [2] [µM] | IC50 [3] [µM] | SMILES |
| --- | --- | --- | --- |
| < 0.1 | < 0.1 | 0.1 to 1 | CC(C)c1c(-c2ccn3ccnc3c2)[nH]c2ccc(C3CCNCC3)cc12 [Example 203, 7-(3-isopropyl-5-(piperidin-4-yl)-1H-indol-2-yl)imidazo[1,2-a]pyridine] |
| 0.1 to 1 | 0.1 to 1 | 1 to 50 | CCc1c(-c2ccnc3[nH]ncc23)[nH]c2ccc(C3CCN(C(=O)C4CCNCC4)CC3)cc12 [Example 647, (4-(3-ethyl-2-(1H-pyrazolo[3,4-b]pyridin-4-yl)-1H-indol-5-yl)piperidin-1-yl)(piperidin-4-yl)methanone] |
| > 3.13 | 0.1 to 1 | 1 to 50 | CNC(=O)CN1CCC(c2ccc3[nH]c(-c4cc(C)c5c(cnn5C)c4)c(C(C)C)c3c2)CC1 [Example 364, 2-(4-(2-(1,7-dimethyl-1H-indazol-5-yl)-3-isopropyl-1H-indol-5-yl)piperidin-1-yl)-N-methylacetamide] |
| 0.1 to 1 | 1 to 50 | 1 to 50 | CCc1c(-c2cc3cnn(C)c3cn2)[nH]c2ccc(C3CCNCC3)cc12 [Example 97, 5-(3-ethyl-5-(piperidin-4-yl)-1H-indol-2-yl)-1-methyl-1H-pyrazolo[3,4-c]pyridine] |
| < 0.1 | < 0.1 | 0.1 to 1 | CC(C)c1c(-c2ccnc3[nH]ncc23)[nH]c2ccc(C3CCN(C(=O)CN4CC[C@H](N(C)C)C4)CC3)cc12 [Example 590, (S)-2-(3-(dimethylamino)pyrrolidin-1-yl)-1-(4-(3-isopropyl-2-(1H-pyrazolo [3,4-b]pyridin-4-yl)-1H-indol-5-yl)piperidin-1-yl)ethan-1-one] |
| > 3.13 | 0.1 to 1 | 1 to 50 | Cc1cn2cc(-c3[nH]c4ccc(C5CCN(C(=O)C[C@@H](C)O)CC5)cc4c3CC(F)F)ccc2n1 [Example 609, (R)-1-(4-(3-(2,2-difluoroethyl)-2-(2-methylimidazo[1,2-a]pyridin-6-yl)-1H-indol-5-yl)piperidin-1-yl)-3-hydroxybutan-1-one] |
| 0.1 to 1 | < 0.1 | 1 to 50 | CNC(=O)CN1CCC(c2ccc3[nH]c(-c4cc(C)n5nc(C)cc5c4)c(C(C)C)c3c2)CC1 [Example 419, 2-(4-(2-(2,7-dimethylpyrazolo[1,5-a]pyridin-5-yl)-3-isopropyl-1H-indol-5-yl)piperidin-1-yl)-N-methylacetamide] |
| 0.1 to 1 | < 0.1 | 0.1 to 1 | CCc1c(-c2ccnc3[nH]ncc23)[nH]c2c(F)cc(C3CCNCC3)cc12 [Example 251, 4-(3-ethyl-7-fluoro-5-(piperidin-4-yl)-1H-indol-2-yl)-1H-pyrazolo[3,4-b]pyridine] |

The remaining lines, values behind:

| SMILES | IC50 [1] [µM] | IC50 [2] [µM] | IC50 [3] [µM] |
| --- | --- | --- | --- |
| CCc1c(-c2ccnc3[nH]ncc23)[nH]c2ccc(C3CCN(Cc4cc(C)n[nH]4)CC3)cc12 [Example 900, 4-(3-ethyl-5-(1-((3-methyl-1H-pyrazol-5-yl)methyl)piperidin-4-yl)-1H-indol-2-yl)-1H-pyrazolo[3,4-b]pyridine] | < 0.1 | 0.1 to 1 | 1 to 50 |
| Cc1c(-c2[nH]c3ccc(C4CCN(C5COC5)CC4)cc3c2C(C)C)nn2ncnc2c1C [Example 730, 6-(3-isopropyl-5-(1-(oxetan-3-yl)piperidin-4-yl)-1H-indol-2-yl)-7,8-dimethyl-[1,2,4]triazolo[1,5-b]pyridazine] | < 0.1 | < 0.1 | 1 to 50 |
| CNC(=O)CN1CCC(c2ccc3[nH]c(-c4cn(C)c5ncccc45)c(C(C)C)c3c2)CC1 [Example 293, 2-(4-(3-isopropyl-2-(1-methyl-1H-pyrrolo[2,3-b]pyridin-3-yl)-1H-indol-5-yl)piperidin-1-yl)-N-methylacetamide] | < 0.1 | < 0.1 | 1 to 50 |
| CCc1c(-c2cnc3cncc(OC)n23)[nH]c2ccc(C3CCNCC3)cc12 [Example 25, 3-(3-ethyl-5-(piperidin-4-yl)-1H-indol-2-yl)-5-methoxyimidazo[1,2-a]pyrazine] | 1 to 50 | 1 to 50 | 0.1 to 1 |
| CCc1c(-c2ccnc3c(N)n[nH]c23)[nH]c2ccc(C3CCNCC3)cc12 [Example 238, 7-(3-ethyl-5-(piperidin-4-yl)-1H-indol-2-yl)-1H-pyrazolo[4,3-b]pyridin-3-amine] | 0.1 to 1 | < 0.1 | 1 to 50 |
| Cc1cc(-c2[nH]c3ccc(C4CCN(CC(C)(C)O)CC4)cc3c2C(C)C)cc2nccn12 [Example 757, 1-(4-(3-isopropyl-2-(5-methylimidazo[1,2-a]pyridin-7-yl)-1H-indol-5-yl)piperidin-1-yl)-2-methylpropan-2-ol] | 0.1 to 1 | 1 to 50 | 0.1 to 1 |
| Cc1cc(-c2[nH]c3ccc(C4CCN(C5COC5)CC4)cc3c2C(C)C)cc2[nH]c(=O)oc12 [Example 708, 5-(3-isopropyl-5-(1-(oxetan-3-yl)piperidin-4-yl)-1H-indol-2-yl)-7-methylbenzo[d]oxazol-2(3H)-one] | 0.1 to 1 | 0.1 to 1 | 1 to 50 |

Source: patent US11739098B2 (BRISTOL-MYERS SQUIBB COMPANY, priority 2017, dated 2023)
